For the test, the target named is T1, BRM (Homo sapiens, UniProt P51531).
T1 construct: In-Cell Western Screen of BRM Degradation in SW1573 Cells; endogenous in cells; host or cells: SW1573
The experiment in a line: In-cell Western screen of BRM degradation in SW1573 cells (Dmax and DC50). In kind it is cell-based. Particulars: for Dmax: SW1573, read-out: BRM Dmax (%); for Dmax / BRM Dmax (%): % degraded, when tested at the top concentration of between 0.3 and 10 μM; for DC50: target protein degradation, read-out: BRM DC50. Put shortly: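 SW1573 cells were treated with compound overnight (18-20 h; final DMSO 0.1%), then fixed in 4% PFA, permeabilized with Triton X-100 and blocked. BRM was detected by in-cell Western using 800 nm anti-rabbit and 680 nm anti-mouse secondaries, and Dmax and DC50 were derived from the LI-COR Odyssey signal.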

T1 sequence (P51531 whole entry): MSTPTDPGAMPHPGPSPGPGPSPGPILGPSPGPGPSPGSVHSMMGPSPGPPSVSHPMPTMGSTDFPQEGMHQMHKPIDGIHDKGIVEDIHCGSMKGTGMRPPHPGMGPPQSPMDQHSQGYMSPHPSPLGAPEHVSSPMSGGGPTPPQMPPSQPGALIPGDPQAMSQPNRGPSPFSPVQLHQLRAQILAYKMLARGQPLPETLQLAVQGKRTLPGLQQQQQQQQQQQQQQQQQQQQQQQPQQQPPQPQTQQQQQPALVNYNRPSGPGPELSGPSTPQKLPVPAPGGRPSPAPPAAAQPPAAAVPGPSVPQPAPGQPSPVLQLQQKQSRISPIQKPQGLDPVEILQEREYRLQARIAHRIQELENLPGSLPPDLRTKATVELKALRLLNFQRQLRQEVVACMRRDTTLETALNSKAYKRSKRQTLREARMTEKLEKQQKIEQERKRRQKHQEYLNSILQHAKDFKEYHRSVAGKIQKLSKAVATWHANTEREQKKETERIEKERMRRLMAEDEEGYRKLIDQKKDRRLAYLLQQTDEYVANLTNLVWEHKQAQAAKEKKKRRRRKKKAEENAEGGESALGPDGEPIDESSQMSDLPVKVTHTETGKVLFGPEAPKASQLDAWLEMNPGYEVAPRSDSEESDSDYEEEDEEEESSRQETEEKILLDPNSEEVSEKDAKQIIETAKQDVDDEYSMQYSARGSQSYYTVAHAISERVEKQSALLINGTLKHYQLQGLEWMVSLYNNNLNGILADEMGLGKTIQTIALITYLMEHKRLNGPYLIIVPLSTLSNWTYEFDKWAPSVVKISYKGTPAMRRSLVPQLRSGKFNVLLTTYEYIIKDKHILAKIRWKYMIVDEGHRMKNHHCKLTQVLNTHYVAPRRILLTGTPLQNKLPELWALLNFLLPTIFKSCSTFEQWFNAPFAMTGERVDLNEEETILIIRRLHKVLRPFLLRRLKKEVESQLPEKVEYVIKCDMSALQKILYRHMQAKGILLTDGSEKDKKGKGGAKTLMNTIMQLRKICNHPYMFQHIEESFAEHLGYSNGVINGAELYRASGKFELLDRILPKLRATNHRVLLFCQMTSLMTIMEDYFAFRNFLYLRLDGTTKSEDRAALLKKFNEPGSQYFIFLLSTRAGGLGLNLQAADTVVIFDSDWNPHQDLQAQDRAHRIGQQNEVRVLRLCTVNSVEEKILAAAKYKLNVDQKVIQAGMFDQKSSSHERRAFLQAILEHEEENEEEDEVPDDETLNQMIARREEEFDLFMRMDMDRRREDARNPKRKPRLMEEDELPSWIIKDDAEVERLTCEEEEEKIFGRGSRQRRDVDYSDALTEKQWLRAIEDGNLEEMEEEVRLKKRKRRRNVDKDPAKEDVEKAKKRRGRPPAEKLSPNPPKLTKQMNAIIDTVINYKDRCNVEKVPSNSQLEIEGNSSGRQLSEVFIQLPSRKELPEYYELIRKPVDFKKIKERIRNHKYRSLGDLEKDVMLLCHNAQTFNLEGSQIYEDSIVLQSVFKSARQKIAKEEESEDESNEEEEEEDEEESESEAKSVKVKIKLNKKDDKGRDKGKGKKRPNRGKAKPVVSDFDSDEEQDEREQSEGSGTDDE

As to `CC(C)[C@H](C(=O)N1C[C@H](O)C[C@H]1C(=O)N[C@@H](C)c1ccc(-n2ccccc2=O)cc1)c1cc(OCCN2CCC(O[C@H]3C[C@H](Oc4cc(N5C6CCC5CN(c5cc(-c7ccccc7O)nnc5N)C6)ccn4)C3)CC2)no1` [compound 372, (2S,4R)-1-((2S)-2-(3-(2-(4-((1r,3S)-3-((4-(3-(3-amino-6-(2-hydroxyphenyl)pyridazin-4-yl)-3,8-diazabicyclo[3.2.1]octan-8-yl)pyridin-2-yl)oxy)cyclobutoxy)piperidin-1-yl)ethoxy)isoxazol-5-yl)-3-methylbutanoyl)-4-hydroxy-N-((S)-1-(4-(2-oxopyridin-1(2H)-yl)phenyl)ethyl)pyrrolidine-2-carboxamide], the maximal degradation (Dmax) was over 75% and the half-maximal degradation concentration (DC50) was over 30 nM.
For `CC(C)[C@@H](C(=O)N1C[C@H](O)C[C@H]1C(=O)N[C@@H](C)c1ccc(-n2ccccc2=O)cc1)c1cc(OCCN2CCC(O[C@H]3C[C@H](Oc4cc(N5C6CCC5CN(c5cc(-c7ccccc7O)nnc5N)C6)ccn4)C3)CC2)no1` [compound 373, (2S,4R)-1-((2R)-2-(3-(2-(4-((1r,3R)-3-((4-(3-(3-amino-6-(2-hydroxyphenyl)pyridazin-4-yl)-3,8-diazabicyclo[3.2.1]octan-8-yl)pyridin-2-yl)oxy)cyclobutoxy)piperidin-1-yl)ethoxy)isoxazol-5-yl)-3-methylbutanoyl)-4-hydroxy-N-((S)-1-(4-(2-oxopyridin-1(2H)-yl)phenyl)ethyl)pyrrolidine-2-carboxamide], the DC50 was over 30 nM.
Regarding `Cc1ncsc1-c1ccc([C@H](C)NC(=O)[C@@H]2C[C@@H](O)CN2C(=O)[C@@H](c2cc(OCCN3CCC(N4CC(Oc5cc(N6C7CCC6CN(c6cc(-c8ccccc8O)nnc6N)C7)ccn5)C4)CC3)no2)C(C)C)cc1` [compound 374, (2S,4R)-1-((2R)-2-(3-(2-(4-(3-((4-(3-(3-amino-6-(2-hydroxyphenyl)pyridazin-4-yl)-3,8-diazabicyclo[3.2.1]octan-8-yl)pyridin-2-yl)oxy)azetidin-1-yl)piperidin-1-yl)ethoxy)isoxazol-5-yl)-3-methylbutanoyl)-4-hydroxy-N-((S)-1-(4-(4-methylthiazol-5-yl)phenyl)ethyl)pyrrolidine-2-carboxamide], the Dmax is over 75% and the DC50 is over 30 nM.
Turning to `Cc1cnc(C)n1-c1ccc([C@H](C)NC(=O)[C@@H]2C[C@@H](O)CN2C(=O)[C@H](c2cc(OCCN3CCC(O[C@H]4C[C@H](Oc5cc(N6C7CCC6CN(c6cc(-c8ccccc8O)nnc6N)C7)ccn5)C4)CC3)no2)C(C)C)cc1` [compound 375, (2S,4R)-1-((2S)-2-(3-(2-(4-((1r,3S)-3-((4-(3-(3-amino-6-(2-hydroxyphenyl)pyridazin-4-yl)-3,8-diazabicyclo[3.2.1]octan-8-yl)pyridin-2-yl)oxy)cyclobutoxy)piperidin-1-yl)ethoxy)isoxazol-5-yl)-3-methylbutanoyl)-N-((S)-1-(4-(2,5-dimethyl-1H-imidazol-1-yl)phenyl)ethyl)-4-hydroxypyrrolidine-2-carboxamide], the 50% degradation concentration (DC50) was over 30 nM.
Turning to `Cc1cnc(C)n1-c1ccc([C@H](C)NC(=O)[C@@H]2C[C@@H](O)CN2C(=O)[C@@H](c2cc(OCCN3CCC(O[C@H]4C[C@H](Oc5cc(N6C7CCC6CN(c6cc(-c8ccccc8O)nnc6N)C7)ccn5)C4)CC3)no2)C(C)C)cc1` [compound 376, (2S,4R)-1-((2R)-2-(3-(2-(4-((1r,3R)-3-((4-(3-(3-amino-6-(2-hydroxyphenyl)pyridazin-4-yl)-3,8-diazabicyclo[3.2.1]octan-8-yl)pyridin-2-yl)oxy)cyclobutoxy)piperidin-1-yl)ethoxy)isoxazol-5-yl)-3-methylbutanoyl)-N-((S)-1-(4-(2,5-dimethyl-1H-imidazol-1-yl)phenyl)ethyl)-4-hydroxypyrrolidine-2-carboxamide], the Dmax was over 75% and the DC50 lay within 10 to 30 nM.
In the same order, the values of `Cc1n[nH]c(C)c1-c1ccc([C@H](C)NC(=O)[C@@H]2C[C@@H](O)CN2C(=O)[C@H](c2cc(OCCN3CCC(O[C@H]4C[C@H](Oc5cc(N6C7CCC6CN(c6cc(-c8ccccc8O)nnc6N)C7)ccn5)C4)CC3)no2)C(C)C)cc1` [compound 377, (2S,4R)-1-((2S)-2-(3-(2-(4-((1r,3S)-3-((4-(3-(3-amino-6-(2-hydroxyphenyl)pyridazin-4-yl)-3,8-diazabicyclo[3.2.1]octan-8-yl)pyridin-2-yl)oxy)cyclobutoxy)piperidin-1-yl)ethoxy)isoxazol-5-yl)-3-methylbutanoyl)-N-((S)-1-(4-(3,5-dimethyl-1H-pyrazol-4-yl)phenyl)ethyl)-4-hydroxypyrrolidine-2-carboxamide] are over 75% and 10 to 30 nM.
Turning to `Cc1n[nH]c(C)c1-c1ccc([C@H](C)NC(=O)[C@@H]2C[C@@H](O)CN2C(=O)[C@@H](c2cc(OCCN3CCC(O[C@H]4C[C@H](Oc5cc(N6C7CCC6CN(c6cc(-c8ccccc8O)nnc6N)C7)ccn5)C4)CC3)no2)C(C)C)cc1` [compound 378, (2S,4R)-1-((2R)-2-(3-(2-(4-((1r,3R)-3-((4-(3-(3-amino-6-(2-hydroxyphenyl)pyridazin-4-yl)-3,8-diazabicyclo[3.2.1]octan-8-yl)pyridin-2-yl)oxy)cyclobutoxy)piperidin-1-yl)ethoxy)isoxazol-5-yl)-3-methylbutanoyl)-N-((S)-1-(4-(3,5-dimethyl-1H-pyrazol-4-yl)phenyl)ethyl)-4-hydroxypyrrolidine-2-carboxamide], the maximal degradation (Dmax) is over 75% and the 50% degradation concentration (DC50) was under 2.5 nM.
Regarding `Cc1ncsc1-c1ccc([C@H](C)NC(=O)[C@@H]2C[C@@H](O)CN2C(=O)[C@H](c2cc(C#CCN3CCC(OC4CC(Oc5cc(N6C7CC[C@@H]6CN(c6cc(-c8ccccc8O)nnc6N)C7)ccn5)C4)CC3)no2)C(C)C)cc1` (stereo partly drawn) [compound 379, (2S,4R)-1-((2S)-2-(3-(3-(4-((1r,3S)-3-((4-(3-(3-amino-6-(2-hydroxyphenyl)pyridazin-4-yl)-3,8-diazabicyclo[3.2.1]octan-8-yl)pyridin-2-yl)oxy)cyclobutoxy)piperidin-1-yl)prop-1-yn-1-yl)isoxazol-5-yl)-3-methylbutanoyl)-4-hydroxy-N-((S)-1-(4-(4-methylthiazol-5-yl)phenyl)ethyl)pyrrolidine-2-carboxamide], the DC50 was over 30 nM.
For the molecule `Cc1ncsc1-c1ccc([C@H](C)NC(=O)[C@@H]2C[C@@H](O)CN2C(=O)[C@@H](c2cc(C#CCN3CCC(O[C@H]4C[C@H](Oc5cc(N6C7CCC6CN(c6cc(-c8ccccc8O)nnc6N)C7)ccn5)C4)CC3)no2)C(C)C)cc1` [compound 380, (2S,4R)-1-((2R)-2-(3-(3-(4-((1r,3R)-3-((4-(3-(3-amino-6-(2-hydroxyphenyl)pyridazin-4-yl)-3,8-diazabicyclo[3.2.1]octan-8-yl)pyridin-2-yl)oxy)cyclobutoxy)piperidin-1-yl)prop-1-yn-1-yl)isoxazol-5-yl)-3-methylbutanoyl)-4-hydroxy-N-((S)-1-(4-(4-methylthiazol-5-yl)phenyl)ethyl)pyrrolidine-2-carboxamide], the greatest degradation seen (Dmax) was over 75% and the DC50 was under 2.5 nM.
Regarding `Cc1ncsc1-c1ccc([C@H](C)NC(=O)[C@@H]2C[C@@H](O)CN2C(=O)[C@H](c2cc(OCC#CC34CC(CNC5CC(Oc6cc(N7C8CC[C@@H]7CN(c7cc(-c9ccccc9O)nnc7N)C8)ccn6)C5)(C3)C4)no2)C(C)C)cc1` (stereo partly drawn) [compound 381, (2S,4R)-1-((2S)-2-(3-((3-(3-((((1r,3S)-3-((4-(3-(3-amino-6-(2-hydroxyphenyl)pyridazin-4-yl)-3,8-diazabicyclo[3.2.1]octan-8-yl)pyridin-2-yl)oxy)cyclobutyl)amino)methyl)bicyclo[1.1.1]pentan-1-yl)prop-2-yn-1-yl)oxy)isoxazol-5-yl)-3-methylbutanoyl)-4-hydroxy-N-((S)-1-(4-(4-methylthiazol-5-yl)phenyl)ethyl)pyrrolidine-2-carboxamide], the “BRM Dmax (%)” value is reported as “A (A > 75)” and the DC50 was in the range of 10 to 30 nM.
The matching figures for `Cc1ncsc1-c1ccc([C@H](C)NC(=O)[C@@H]2C[C@@H](O)CN2C(=O)[C@@H](c2cc(OCC#CC34CC(CN[C@H]5C[C@H](Oc6cc(N7C8CC[C@@H]7CN(c7cc(-c9ccccc9O)nnc7N)C8)ccn6)C5)(C3)C4)no2)C(C)C)cc1` [compound 382, (2S,4R)-1-((2R)-2-(3-((3-(3-((((1r,3R)-3-((4-(3-(3-amino-6-(2-hydroxyphenyl)pyridazin-4-yl)-3,8-diazabicyclo[3.2.1]octan-8-yl)pyridin-2-yl)oxy)cyclobutyl)amino)methyl)bicyclo[1.1.1]pentan-1-yl)prop-2-yn-1-yl)oxy)isoxazol-5-yl)-3-methylbutanoyl)-4-hydroxy-N-((S)-1-(4-(4-methylthiazol-5-yl)phenyl)ethyl)pyrrolidine-2-carboxamide]: “A (A > 75)” and under 2.5 nM.
Turning to `Cc1ncsc1-c1ccc([C@H](C)NC(=O)[C@@H]2C[C@@H](O)CN2C(=O)[C@@H](c2cc(OCC#CC34CC(CN5CC(Oc6cc(N7C8CCC7CN(c7cc(-c9ccccc9O)nnc7N)C8)ccn6)C5)(C3)C4)no2)C(C)C)cc1` [compound 383, (2S,4R)-1-((2R)-2-(3-((3-(3-((3-((4-(3-(3-amino-6-(2-hydroxyphenyl)pyridazin-4-yl)-3,8-diazabicyclo[3.2.1]octan-8-yl)pyridin-2-yl)oxy)azetidin-1-yl)methyl)bicyclo[1.1.1]pentan-1-yl)prop-2-yn-1-yl)oxy)isoxazol-5-yl)-3-methylbutanoyl)-4-hydroxy-N-((S)-1-(4-(4-methylthiazol-5-yl)phenyl)ethyl)pyrrolidine-2-carboxamide], the Dmax was over 75% and the DC50 is over 30 nM.

For orientation: Dmax means the largest share of the target that was removed. Usually DC50 stands for the concentration giving 50% degradation.

Source of the values: US12539292B2, “BRM targeting compounds and associated methods of use” (Arvinas Operations, Inc., priority 2018, dated 2026).
